Series [1] is described as follows: Cyclic voltammetry in anhydrous acetonitrile. Particulars: 100 mV s−1, Pt pseudo-reference (Fc+/0 at +0.45 V). The format is physicochemical. As for the experimental part: It has been reported that coumarins and their derivatives are able to regulate the reactive oxygen species (ROS). For example, esculetin induces cytotoxicity in pancreatic cancer cells decreasing ROS and protein levels of the ROS-dependent transcription factor NF-κB [49]. On the other end, coumarins induce the generation and accumulation of ROS in cancer cells causing cell cycle arrest and apoptotic cell death. […] Conversely, 2h produces an antiproliferative response in TPC-1 cells by scavenging ROS. In an attempt of a better understanding of the results, such compounds were explored from an electrochemical point of view by means of cyclic voltammetry in anhydrous acetonitrile.
The electrochemical properties of compounds 2h and 2k were investigated by cyclic voltammetry (CV) technique under an inert atmosphere. The measurements have been carried out at 100 mV s^−1 with a three-electrode cell using a platinum tip as a working electrode, a platinized titanium net as a counter electrode, and a platinum wire as a pseudo-reference electrode. The electrochemical measurements were performed at room temperature using an AUTOLAB PGSTAT302N (Metrohm, Herisau, Switzerland) potentiostat/galvanostat controlled with the NOVA software. All the solutions were prepared in anhydrous degassed acetonitrile with 0.1 M [n-Bu4N][PF6] as supporting electrolyte: in this condition, the Fc^+/0 redox couple is centered at +0.45 V.

A further series in a line: MTT cell viability assay. It counts as cell-based. Conditions: human, MTT, 24 h, concentration required to inhibit cell proliferation by 50%, mean ± SD. As for the experimental part:
(§1) The cytotoxic effect of coumarins 2a–k was tested on several cancer and normal cell lines: lung cancer cell line (SK-MES-1), thyroid cancer cell lines (K-1; B-CPAP ant TPC-1), lung fibroblast (MRC-5) and thyroid normal cell line (Nthy-ori-3-1) by MTT (3-[4,5-dimethylthiazol-2-yl]-2,5 diphenyltetrazolium bromide) assay.
(§2) The papillary thyroid carcinoma (PTC)-derived cell lines (TPC-1 and B-CPAP) were kindly provided by Dr. Fusco (Medical School, University Federico II of Naples, Naples, Italy). K-1 PTC-derived cell line and non-tumorigenic thyroid Nthy-ori-3-1 cell line were purchased from Health Protection Agency Culture Collections. The PTC-derived cell lines were maintained in DMEM/F12 (Gibco-BRL. Life Technologies, Milan, Italy)] supplemented with 10% fetal bovine serum (Gibco-BRL) at 37 °C in humidified 5% CO2. SK-MES-1 and MRC-5 were purchased from American Type Culture Collection (ATCC) and were maintained in Mem-E medium, supplemented with 10% fetal bovine serum, 100 units/mL penicillin G, and 100 μg/mL streptomycin (Gibco-BRL) at 37 °C in humidified 5% CO2.
(§3) The effect of test compounds on the viability of cells was detected by MTT assay. The thyroid cells (7.5 × 10^3 cells/mL), SK-MES-1, and MRC-5 (8 × 10^4 cells/mL) were seeded into a 96-well plate and allowed to adhere for 16 h to culture plates before the addition of the compounds.
(§4) Then, compounds were added at different concentrations (0.8–100 μM), and cells were further incubated for 24 h. Cells with no treatment were used as a negative control. After incubation, cells were treated with MTT solution for 3 h at 37 °C. Then, the MTT solution was removed, and 150 µL of DMSO was added to the wells. The absorbances were measured at 570 nm using a TECAN microplate reader (Infinite 200, Tecan, Salzburg, Austria). Viability data were reported as % of control (untreated cells) for each cell line.
On the technique in general: Formazan colour is commonly taken as a measure of viable cells.

The subject of series [2] is K-1 thyroid cancer cell line. Put plainly: MTT cell viability assay. It counts as cell-based. Conditions: K-1; MTT, 24 h; concentration required to inhibit cell proliferation by 50%; mean ± SD; read-out: CC50. The procedure:
as §1, §2, §3, §4

For series [3], the system named is TPC-1 thyroid cancer cell line. Put plainly: MTT cell viability assay. Particulars: Homo sapiens, TPC1; TPC-1; MTT, 24 h; concentration required to inhibit cell proliferation by 50%; mean ± SD; read-out: CC50. The format is cell-based. As for the experimental part:
as §1, §2, §3, §4

The subject of series [4] is SK-MES-1 lung cancer cell line. Kind of series: MTT cell viability assay. Conditions: Homo sapiens; SK-MES-1; MTT, 24 h; concentration required to inhibit cell proliferation by 50%; mean ± SD; read-out: CC50. The format is cell-based. The procedure: as §1, §2, §3, §4
Series [5] deals with B-CPAP thyroid cancer cell line. Kind of series: MTT cell viability assay. The format is cell-based. Conditions: Homo sapiens, BCPAP; B-CPAP; MTT, 24 h; concentration required to inhibit cell proliferation by 50%; mean ± SD; read-out: CC50. The procedure: as §1, §2, §3, §4
For another series, the system named is Nthy-ori3-1 cells. Kind of series: Intracellular reduced and oxidized glutathione (GSH/GSSG) by HPLC-ECD. Conditions: 20 µM, 24 h. It counts as cell-based. As for the experimental part: (§5) Redox perturbation was further investigated by measuring intracellular antioxidant species. In Nthy-ori3-1 cells, coumarin 2k at 20 µM improved the GSH concentration measured as GSH/GSSG ratio (p < 0.001), leading to values close to 200% with respect to the untreated cells (100%), while coumarin 2h increased the level of GSH but with less evidence (about 40% more than the untreated control cells, p < 0.01) (Figure 4). […] The Keap1/Nrf2/ARE system is a mechanism that plays a key role in the pathogenesis and progression of several diseases. It is a central defensive mechanism against oxidative stress.
(§6) Reduced glutathione (GSH) and oxidized glutathione (GSSG) levels were determined with high-performance liquid chromatography coupled with an electrochemical detector (HPLC-ECD), as described in previous studies. In detail, Nthy-ori3-1 and TPC-1 cells were seeded in 6-well plates at the density of 1 × 10^5 cells/2 mL and incubated for 24 h. Cells were then treated with 2k and 2h (20 µM) for 24 h. After the incubation, cells were scraped and extracted with 150 µL of 10% meta-phosphoric acid and 150 µL of 0.05% trifluoroacetic acid (TFA) (Merck, Milan, Italy) solution. After centrifugation, 10 µL of supernatant was collected for protein determination, and the remaining part was injected into the HPLC system. GSH and GSSG amounts were measured using an HPLC (Agilent 1260 infinity, Agilent Technologies, Palo Alto, CA, USA) equipped with an electrochemical detector (DECADE II Antec, Leyden, The Netherlands) and an Agilent interface 35900E. A calibration curve was created using standards of GSH and GSSG (Merck, Milan, Italy), injected with different concentrations. Data were collected and expressed as a percentage of the control cells (100%) of the ratio between GSH and GSSG normalized using µg of total proteins.

Another series concerns TPC-1 cells. The series is described as above. The format is cell-based. Conditions: 20 µM, 24 h, untreated cells 100%. As for the experimental part:
as §5, §6

[6] abbreviates: Nthy-ori-3-1 normal thyroid cells, Nthy-ori-3-1.

Bounds are passed on as bounds.

With `N#Cc1cc2cc(Br)cc(Br)c2oc1=O` [2h, 6,8-dibromo-2-oxo-2H-chromene-3-carbonitrile], the oxidation peak potential in series [1] is reported as 0.6 V. Moreover, the reduction feature potential in series [1] was −1.02 V. For the same compound, the CC50 (in general, the concentration giving 50% cytotoxicity) at 24 h was above 100 µM in the series “MTT cell viability assay” (MRC-5 lung fibroblasts, MRC-5) and above 100 µM in the series “MTT cell viability assay” (setting [6]). Further, the CC50 in series [2] is 60 ± 3 µM; in series [3] it was 90 ± 3.5 µM; in series [4] it was above 100 µM; in series [5] it was above 100 µM. In addition, the “increase in level of GSH over untreated control cells” value with Nthy-ori3-1 cells (more than the untreated control) is “about 40%”. For the same compound, the “GSH/GSSG ratio, percentage of untreated cells” value in the series with TPC-1 cells was “up to 500%”.

In turn, `N#Cc1cc2cc(I)cc(I)c2oc1=O` [2k, 6,8-diiodo-2-oxo-2H-chromene-3-carbonitrile] showed an oxidation peak potential in series [1] of 0.75 V. The compound further came in with a reduction feature potential in series [1] of −0.95 V. Besides, the cytotoxic concentration (CC50) at 24 h in “MTT cell viability assay” (MRC-5 lung fibroblasts, MRC-5) was above 100 µM; in the series “MTT cell viability assay” (setting [6]) it was above 100 µM. Also, the CC50 was 57 ± 5 µM in series [2], 44 ± 5.5 µM in series [3], above 100 µM in series [4] and 46 ± 0.2 µM in series [5]. Also, the “GSH/GSSG ratio, percentage of untreated cells” value in the series with Nthy-ori3-1 cells (untreated cells 100%) and in the series on TPC-1 cells was “about 200%” throughout.

The record behind these values is PMC9786284, “Synthesis and Antiproliferative Effect of Halogenated Coumarin Derivatives” (Molecules, 2022).
